Laboratory results published in ChEMBL document CHEMBL3259558, “Identification of amides derived from 1H-pyrazolo[3,4-b]pyridine-5-carboxylic acid as potent inhibitors of human nicotinamide phosphoribosyltransferase (NAMPT)” (Bioorg Med Chem Lett, 2013).
≈ marks a conversion by molar mass, not a printed value. Calls of active or inactive are those of the source. The calls are words filed in the database; no cut-off is given here.

Columns and labels:
[1] = Inhibition of C-terminal His-6-tagged dog NAMPT expressed in Escherichia coli (DE3)-RIL cells after 30 mins by mass spectrometry-based analysis; set-up: species or system Canis lupus familiaris
[2] = Dissociation constant, pKa of the compound; type: physicochemical
[3] = Antiproliferative activity against dog D17 cells assessed as cell viability after 96 hrs by CyQuant staining-based assay; type: functional; conditions: Canis lupus familiaris, D17, 96 h
[4] = Antiproliferative activity against mouse B16F10 cells assessed as cell viability after 96 hrs by CyQuant staining-based assay; type: functional; conditions: B16-F10, 96 h
[5] = biological target: T1, Nicotinamide phosphoribosyltransferase (Mus musculus, UniProt Q99KQ4); experiment: Inhibition of NAMPT in mouse cells assessed as reduction in NAD level after 48 hrs by mass spectrometry; type: cell-based
[6] = Antiproliferative activity against dog A72 cells assessed as cell viability after 96 hrs by CyQuant staining-based assay; type: functional; conditions: Canis lupus familiaris, A-72, 96 h
[7] = Ratio of drug level in retina to plasma of Sprague-Dawley rat at 30 mg/kg, po qd for 2 days measured 6.5 hrs after last dose in presence of nicotinic acid
[8] = Drug uptake in Sprague-Dawley rat retina at 30 mg/kg, po qd for 2 days measured 1 hr after last dose in presence of nicotinic acid; type: ADME, organism-based; set-up: dose 30 mg/kg, route oral; conditions: read-out: Drug uptake
[9] = Drug uptake in Sprague-Dawley rat retina at 30 mg/kg, po qd for 2 days measured 6.5 hrs after last dose in presence of nicotinic acid; type: ADME, organism-based; set-up: dose 30 mg/kg, route oral; conditions: read-out: Drug uptake
[10] = Cytotoxicity against rhesus monkey RF/6A cells assessed as cell viability after 96 hrs by CyQuant staining-based assay; conditions: Macaca mulatta
[11] = Antiproliferative activity against human MIAPaCa2 cells assessed as cell viability after 96 hrs by CyQuant staining-based assay; type: functional; conditions: MIA PaCa-2, 96 h
[12] = Antiproliferative activity against dog DH82 cells assessed as cell viability after 96 hrs by CyQuant staining-based assay; type: functional; conditions: Canis lupus familiaris, DH82, 96 h
[13] = Inhibition of C-terminal His-6-tagged cynomolgus monkey NAMPT expressed in Escherichia coli (DE3)-RIL cells after 30 mins by mass spectrometry-based analysis; set-up: species or system Macaca fascicularis
[14] = Ratio of drug level in retina to plasma of Sprague-Dawley rat at 30 mg/kg, po qd for 2 days measured 1 hr after last dose in presence of nicotinic acid
[15] = biological target: Nicotinamide phosphoribosyltransferase (Rattus norvegicus, UniProt Q80Z29); experiment: Inhibition of rat NAMPT after 30 mins by mass spectrometry-based analysis
[16] = Cytotoxicity against African green monkey COS7 cells assessed as cell viability after 96 hrs by CyQuant staining-based assay; conditions: Chlorocebus aethiops, COS-7, 96 h
[17] = Antiproliferative activity against mouse KPP cells assessed as cell viability after 96 hrs by CyQuant staining-based assay; type: functional
[18] = Cellular uptake in mouse KPP cells at 200 nM; type: ADME, cell-based; conditions: 0.2 µM
PC-3 [19] = experiment: Antiproliferative activity against human PC3 cells assessed as cell viability after 96 hrs by CyQuant staining-based assay; type: functional; conditions: PC-3, 96 h
PC-3 [20] = experiment: Cellular uptake in human PC3 cells at 1000 nM; type: ADME, cell-based; conditions: pc-3, 1 µM
[21] = Antiproliferative activity against human HT1080 cells assessed as cell viability after 96 hrs by CyQuant staining-based assay; type: functional; conditions: HT-1080, 96 h
[22] = Antiproliferative activity against mouse KPR cells assessed as cell viability after 96 hrs by CyQuant staining-based assay; type: functional
[23] = Cellular uptake in mouse KPP cells at 1000 nM; type: ADME, cell-based; conditions: 1 µM
[24] = Octanol-PBS buffer distribution coefficient, log D of the compound at pH 7.4 by shake flask method; type: physicochemical
PC-3 [25] = experiment: Cellular uptake in human PC3 cells at 200 nM; type: ADME, cell-based; conditions: pc-3, 0.2 µM
[26] = biological target: T1, Nicotinamide phosphoribosyltransferase; experiment: Inhibition of mouse NAMPT after 30 mins by mass spectrometry-based analysis
[27] = Aqueous solubility of the compound in PBS at pH 7.2 by LC/CLND analysis; type: physicochemical
[28] = Ratio of drug level in retina to plasma of Sprague-Dawley rat at 30 mg/kg, po qd for 2 days measured 6.5 hrs after last dose
A2780 [29] = experiment: Antiproliferative activity against human A2780 cells assessed as cell viability after 72 hrs by SRB assay in presence of nitotinamide mononucleotide; type: functional, cell-based
[30] = Drug uptake in Sprague-Dawley rat retina at 30 mg/kg, po single dose measured 1 hr after dose
[31] = Clearance in NCR nude mouse at 5 mg/kg, iv; type: ADME, organism-based; set-up: dose 5 mg/kg, route intravenous; conditions: in vivo
[32] = Ratio of drug level in retina to plasma of Sprague-Dawley rat at 30 mg/kg, po qd for 2 days measured 1 hr after last dose
[33] = Drug uptake in Sprague-Dawley rat retina at 30 mg/kg, po single dose measured 6.5 hrs after dose
[34] = Half life in NCR nude mouse at 100 mg/kg, po; type: ADME, organism-based; set-up: dose 100 mg/kg, route oral; conditions: in vivo
Tumour = experiment: Reduction of NAD level in tumor of NCR nude mouse xenografted with human A2780 cells at 100 mg/kg, po qd measured after day-5 dose for 1 to 24 hrs relative to vehicle-treated control; type: functional, organism-based; set-up: dose 100 mg/kg
[35] = Half life in NCR nude mouse at 5 mg/kg, iv; type: ADME, organism-based; set-up: dose 5 mg/kg, route intravenous; conditions: in vivo
HCT-116 = experiment: Antiproliferative activity against human HCT116 cells assessed as cell viability after 96 hrs by CyQuant staining-based assay; type: functional; conditions: HCT-116, 96 h
Mus musculus = experiment: Toxicity in NCR nude mouse xenografted with human A2780 cells assessed as decrease in body weight at 100 mg/kg, po qd measured after 5 days; type: organism-based; set-up: dose 100 mg/kg, route oral; conditions: in vivo, 120 h
[36] = Volume of distribution at steady state in NCR nude mouse at 5 mg/kg, iv; type: ADME, organism-based; set-up: dose 5 mg/kg, route intravenous; conditions: in vivo, read-out: Vdss
A2780 [37] = experiment: Antitumor activity against human A2780 cells xenografted in NCR nude mouse assessed as tumor regression at 100 mg/kg, po qd measured for 5 to 15 days; type: functional, organism-based; set-up: dose 100 mg/kg
[38] = Fraction unbound in mouse plasma at 5 uM by LC-MS/MS analysis; type: ADME, cell-free
[39] = Cmax in NCR nude mouse at 100 mg/kg, po; type: ADME, organism-based; set-up: dose 100 mg/kg, route oral; conditions: in vivo
A2780 [40] = experiment: Antiproliferative activity against human A2780 cells assessed as cell viability after 72 hrs by SRB assay; type: functional, cell-based; conditions: A2780, 72 h
[41] = Cytotoxicity against African green monkey COS1 cells assessed as cell viability after 96 hrs by CyQuant staining-based assay; conditions: Chlorocebus aethiops, COS-1, 96 h
[42] = Antiproliferative activity against human Calu6 cells assessed as cell viability after 96 hrs by CyQuant staining-based assay; type: functional; conditions: Calu-6, 96 h
[43] = Apparent permeability from apical to basolateral side in MDCK cells at 10 uM by LC-MS/MS analysis; type: ADME, cell-based, Canis lupus familiaris; conditions: dog
[44] = Tmax in NCR nude mouse at 100 mg/kg, po; type: ADME, organism-based; set-up: dose 100 mg/kg, route oral; conditions: in vivo

T1 sequence (Q99KQ4 whole entry): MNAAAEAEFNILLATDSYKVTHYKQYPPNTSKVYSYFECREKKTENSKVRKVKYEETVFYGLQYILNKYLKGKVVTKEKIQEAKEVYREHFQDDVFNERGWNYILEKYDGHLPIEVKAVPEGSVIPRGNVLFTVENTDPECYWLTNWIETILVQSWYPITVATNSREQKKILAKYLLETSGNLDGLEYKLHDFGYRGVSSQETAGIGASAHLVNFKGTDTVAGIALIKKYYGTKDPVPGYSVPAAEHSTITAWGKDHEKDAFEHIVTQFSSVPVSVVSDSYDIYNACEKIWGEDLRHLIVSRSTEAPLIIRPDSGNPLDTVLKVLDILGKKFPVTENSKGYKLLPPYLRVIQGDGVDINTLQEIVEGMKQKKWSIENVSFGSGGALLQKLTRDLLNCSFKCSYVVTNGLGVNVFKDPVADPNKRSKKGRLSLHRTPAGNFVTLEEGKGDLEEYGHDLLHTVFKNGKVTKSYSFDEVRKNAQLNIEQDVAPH
Sequence of Nicotinamide phosphoribosyltransferase (Rattus norvegicus, UniProt Q80Z29) (Q80Z29 whole entry): as the sequence (Q99KQ4 whole entry) above, with T335S, N439T, I484M counted along it

O=C(NCc1ccc(S(=O)(=O)c2cc(F)cc(F)c2)cc1)c1ccc2nccn2c1
IC50 [1]: 7 nM | pKa [2]: 5.3 | IC50 [3]: 12 nM | IC50 [4]: 71 nM | EC50 [5]: 1.3 nM | IC50 [6]: 4 nM | Kp at 6.5 h [7]: 0.3 | concentration at 1 h [8]: 1900 nM | concentration at 6.5 h [9]: 1300 nM | IC50 [10]: 4 nM | IC50 [11]: 7 nM | IC50 [12]: 7 nM | IC50 [13]: 42 nM | Kp at 1 h [14]: 0.32 | IC50 [15]: 23 nM | IC50 [16]: 9 nM | IC50 [17]: 16 nM | Drug uptake [18]: 8 nM | IC50 (PC-3 [19]): 3 nM | Drug uptake (PC-3 [20]): 30 nM | IC50 [21]: 2 nM | IC50 [22]: 41 nM | Drug uptake [23]: 31 nM | logD [24]: 3.2 | Drug uptake (PC-3 [25]): 9 nM | IC50 [26]: 24 nM

O=C(NCc1ccc(S(=O)(=O)c2cccc(C(F)(F)F)c2)cc1)c1cnc2[nH]ncc2c1
solubility [27]: 1.4 µM (≈ 0.645 µg/mL) | Kp at 6.5 h [28]: 0.093 | IC50 [1]: 22 nM | inhibition (A2780 [29]): inactive | concentration at 1 h [30]: 940 nM | pKa [2]: < 2 | clearance [31]: 3.3 mL/min/kg | Kp at 1 h [32]: 0.071 | concentration at 6.5 h [33]: 680 nM | IC50 [3]: 98 nM | IC50 [4]: > 1000 nM | EC50 [5]: 70 nM | IC50 [6]: 23 nM | half-life [34]: 3.4 h | Activity (Tumour): Active | half-life [35]: 2.6 h | IC50 [10]: 386 nM | IC50 [11]: 30 nM | IC50 [12]: 41 nM | IC50 (HCT-116): 8 nM | IC50 [13]: 73 nM | Activity (Mus musculus): Toxic | IC50 [15]: 35 nM | IC50 [16]: 863 nM | IC50 [17]: 775 nM | Drug uptake [18]: 12 nM | Vd [36]: 0.45 L/kg | Activity (A2780 [37]): Active | IC50 (PC-3 [19]): 9 nM | fraction unbound at 5 µM [38]: 0.013 | Drug uptake (PC-3 [20]): 54 nM | IC50 [21]: 9 nM | IC50 [22]: > 1000 nM | Cmax [39]: 53000 nM | IC50 (A2780 [40]): 4.3 nM | Drug uptake [23]: 74 nM | IC50 [41]: 501 nM | logD [24]: 3.4 | Drug uptake (PC-3 [25]): 10 nM | IC50 [42]: 21 nM | IC50 [26]: 59 nM | Papp A→B at 10 µM [43]: 11 ×10⁻⁶ cm/s | Tmax [44]: 0.25 h
